Assays:
Assay type in all cases: biochemical
human ME3 enzyme = target: T1, human ME3 enzyme (Homo sapiens, UniProt Q16798); assay: ME3 inhibition assay (diaphorase/resazurin coupled fluorescence); conditions: 10 μM compound concentration; read-out: Malic Enzyme 3 % inhibition (10 μM)
T1 sequence (Q16798 1-604): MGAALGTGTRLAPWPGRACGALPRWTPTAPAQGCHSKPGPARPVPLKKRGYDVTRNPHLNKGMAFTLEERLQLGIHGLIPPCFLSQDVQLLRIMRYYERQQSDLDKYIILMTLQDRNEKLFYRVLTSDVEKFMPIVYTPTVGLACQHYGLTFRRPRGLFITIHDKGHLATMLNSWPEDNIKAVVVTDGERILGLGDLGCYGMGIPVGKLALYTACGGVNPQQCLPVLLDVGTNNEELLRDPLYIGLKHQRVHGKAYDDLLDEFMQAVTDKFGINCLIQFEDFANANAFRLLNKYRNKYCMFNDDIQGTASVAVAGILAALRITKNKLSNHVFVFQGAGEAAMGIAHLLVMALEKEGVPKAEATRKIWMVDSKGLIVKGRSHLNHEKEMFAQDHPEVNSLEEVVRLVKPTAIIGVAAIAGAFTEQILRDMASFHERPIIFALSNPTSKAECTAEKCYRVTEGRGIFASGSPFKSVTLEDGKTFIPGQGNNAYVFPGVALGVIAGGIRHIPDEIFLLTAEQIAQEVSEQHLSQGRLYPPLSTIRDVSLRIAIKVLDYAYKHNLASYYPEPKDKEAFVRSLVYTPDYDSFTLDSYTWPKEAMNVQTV
In short: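 Coupled read-out: NADPH made by human ME3 (20 nM stock) drives diaphorase conversion of resazurin (50 μM) to resorufin; buffer 50 mM Tris-HCl pH 7.5, 10 mM MnCl2, 3 mM L-malate.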

human ME1 enzyme = target: T2, human ME1 enzyme (Homo sapiens, UniProt P48163); assay: ME1 inhibition assay (diaphorase/resazurin coupled fluorescence); conditions: 10 μM compound concentration; read-out: Malic Enzyme 1 % inhibition (10 μM)
T2 sequence (P48163 1-572): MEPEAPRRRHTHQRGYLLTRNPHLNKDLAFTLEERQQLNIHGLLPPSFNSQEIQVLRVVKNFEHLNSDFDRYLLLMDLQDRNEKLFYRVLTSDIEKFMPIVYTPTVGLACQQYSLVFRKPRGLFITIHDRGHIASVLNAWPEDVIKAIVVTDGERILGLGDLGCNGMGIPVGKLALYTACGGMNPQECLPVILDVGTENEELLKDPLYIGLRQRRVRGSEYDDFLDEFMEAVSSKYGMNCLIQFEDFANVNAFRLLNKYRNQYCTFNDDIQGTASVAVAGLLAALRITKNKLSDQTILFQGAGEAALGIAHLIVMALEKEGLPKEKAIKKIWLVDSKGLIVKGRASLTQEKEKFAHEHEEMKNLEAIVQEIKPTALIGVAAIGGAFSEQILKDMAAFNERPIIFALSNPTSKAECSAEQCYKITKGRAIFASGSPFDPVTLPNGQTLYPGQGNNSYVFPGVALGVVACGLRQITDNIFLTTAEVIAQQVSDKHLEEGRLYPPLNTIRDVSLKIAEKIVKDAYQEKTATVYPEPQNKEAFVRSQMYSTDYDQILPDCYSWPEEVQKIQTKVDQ
In short: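 Compounds at 10 μM preincubated 15 min in 50 mM Tris-HCl pH 7.5, 10 mM MnCl2, 2 mM L-malate, 10 μM resazurin, 0.01 mg/ml diaphorase, then human ME1 added for 5 min; reaction started with NADP+ and run 2 h at room temperature. Resorufin fluorescence (ex 540/em 600 nm) normalized to enzyme-only (100%) and no-enzyme (0%) controls.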

human ME2 enzyme = human ME2 enzyme (Homo sapiens, UniProt P23368); assay: ME2 inhibition assay (diaphorase/resazurin coupled fluorescence); conditions: 10 μM compound concentration; read-out: Malic Enzyme 2 % inhibition (10 μM)
Chain of human ME2 enzyme (P23368 19-584): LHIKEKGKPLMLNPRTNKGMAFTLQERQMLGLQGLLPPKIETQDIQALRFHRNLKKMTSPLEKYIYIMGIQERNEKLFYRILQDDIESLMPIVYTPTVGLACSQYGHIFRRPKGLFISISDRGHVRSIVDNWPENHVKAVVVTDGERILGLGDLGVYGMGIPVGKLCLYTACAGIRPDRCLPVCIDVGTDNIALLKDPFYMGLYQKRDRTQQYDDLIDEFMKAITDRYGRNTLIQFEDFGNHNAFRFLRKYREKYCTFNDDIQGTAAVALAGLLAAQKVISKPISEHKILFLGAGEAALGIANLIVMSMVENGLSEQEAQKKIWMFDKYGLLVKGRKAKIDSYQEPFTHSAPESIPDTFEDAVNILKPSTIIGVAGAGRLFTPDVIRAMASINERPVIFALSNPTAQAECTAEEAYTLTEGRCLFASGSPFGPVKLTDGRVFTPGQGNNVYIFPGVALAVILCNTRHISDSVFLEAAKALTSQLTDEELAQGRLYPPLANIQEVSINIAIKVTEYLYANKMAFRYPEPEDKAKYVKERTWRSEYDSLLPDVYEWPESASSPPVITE
In short: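 Human ME2 (10 μL of 60 nM) was preincubated 5 min at room temperature with compound (10 μM) in 50 mM Tris-HCl pH 7.5, 10 mM MnCl2, 7 mM L-malate, 50 μM resazurin and 0.025 mg/ml diaphorase. The reaction was started with 10 μL of 2 mM β-NAD+ and run 2 hours at room temperature. Resorufin fluorescence (ex 540/em 600 nm) was normalized to enzyme-only (100%) and no-enzyme (0%) controls as % activity.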

Measured: inhibition at 10 µM

O=C(Cc1cc(F)cc(F)c1)N1CCN(c2ccc(O)cc2)CC1 [I.148, 2-(3,5-difluoro-phenyl)-1-[4-(4-hydroxy-phenyl)-piperazin-1-yl]-ethanone]
> 90%: all assays above

O=C(Cc1ccc(F)cc1F)N1CCN(c2ccc(O)cc2)CC1 [I.149, 2-(2,4-difluoro-phenyl)-1-[4-(4-hydroxy-phenyl)-piperazin-1-yl]-ethanone]
> 90%: all assays above

O=C(Cc1c[nH]c2ccc(F)cc12)N1CCN(c2ccc(O)cc2)CC1 [I.150, 2-(5-fluoro-1H-indol-3-yl)-1-[4-(4-hydroxy-phenyl)-piperazin-1-yl]-ethanone]
> 90%: all assays above

O=C(CSc1ccccc1Br)N1CCN(c2ccc(O)cc2)CC1 [I.151, 2-(2-bromo-phenylsulfanyl)-1-[4-(4-hydroxy-phenyl)-piperazin-1-yl]-ethanone]
> 90%: all assays above

O=C(CCc1ccc(F)cc1F)N1CCN(c2ccc(O)cn2)CC1 [I.152, 3-(2,4-Difluoro-phenyl)-1-[4-(5-hydroxy-pyridin-2-yl)-piperazin-1-yl]-propan-1-one]
> 90%: all assays above

O=C(CCc1ccc(F)c(F)c1)N1CCN(c2ccc(O)cn2)CC1 [I.153, 3-(3,4-Difluoro-phenyl)-1-[4-(5-hydroxy-pyridin-2-yl)-piperazin-1-yl]-propan-1-one]
> 90%: all assays above

Cc1cccc(Cl)c1C(=O)N1CCN(c2ccc(O)cc2)CC1 [I.154, (2-Chloro-6-methylphenyl)-[4-(4-hydroxy-phenyl)-piperazin-1-yl]-methanone]
> 90%: all assays above

O=C(c1c[nH]c2ccc(F)cc12)N1CCN(c2ccc(O)cn2)CC1 [I.155, (5-Fluoro-1H-indol-3-yl)-[4-(5-hydroxy-pyridin-2-yl)-piperazin-1-yl]-methanone]
> 90%: all assays above

O=C(c1c[nH]c2ccc(F)cc12)N1CCN(c2ccc(O)cc2)CC1 [I.156, (5-Fluoro-1H-indol-3-yl)-[4-(4-hydroxy-phenyl)-piperazin-1-yl]-methanone]
> 90%: all assays above

O=C(CCc1c(F)cccc1F)N1CCN(c2ccc(O)cn2)CC1 [I.157, 3-(2,6-Difluoro-phenyl)-1-[4-(5-hydroxy-pyridin-2-yl)-piperazin-1-yl]-propan-1-one]
> 90%: all assays above

O=C(Cc1c[nH]c2cc(F)ccc12)N1CCN(c2ccc(O)cn2)CC1 [I.158, 2-(6-Fluoro-1H-indol-3-yl)-1-[4-(5-hydroxy-pyridin-2-yl)-piperazin-1-yl]-ethanone]
> 90%: all assays above

O=C(Cc1c[nH]c2ccc(Cl)cc12)N1CCN(c2ccc(O)cn2)CC1 [I.159, 2-(5-Chloro-1H-indol-3-yl)-1-[4-(5-hydroxy-pyridin-2-yl)-piperazin-1-yl]-ethanone]
> 90%: all assays above

O=C(Cc1c[nH]c2cc(F)c(F)cc12)N1CCN(c2ccc(O)cn2)CC1 [I.160, 2-(5,6-Difluoro-1H-indol-3-yl)-1-[4-(5-hydroxy-pyridin-2-yl)-piperazin-1-yl]-ethanone]
> 90%: all assays above

CC(C)(CC(=O)N1CCN(c2ccc(O)cn2)CC1)c1ccc(F)cc1 [I.161, 3-(4-Fluoro-phenyl)-1-[4-(5-hydroxy-pyridin-2-yl)-piperazin-1-yl]-3-methyl-butan-1-one]
> 90%: all assays above
